Source: patent US12128072B2, “Hepatocytes and hepatic non-parenchymal cells, and methods for preparation thereof” (The University of Tokyo, priority 2015, dated 2024)

Test system: mouse CD45-FLK1+CD31+CD34+ cells (liver sinusoidal endothelial progenitor cells)
Assay: Expression of liver sinusoidal endothelial cell marker genes by quantitative RT-PCR in mouse embryonic liver FLK1+CD31+CD34+ cells
Assay type: cell-based
Details: 5 days after addition of A83-01, versus day 0 before addition; FIG. 45
Procedure: TRIzol reagent (Life Technologies) or NucleoSpin RNA XS (MACHEREY-NAGAL, Duren, Germany) was used to extract the RNA. The remaining genomic DNA was digested using DNaseI (Life Technologies), and then a PrimeScript II 1st strand cDNA Synthesis Kit (Takara Bio, Shiga, Japan) was used to synthesize single-stranded cDNA. The quantitative RT-PCR was carried out using SYBR Premix EX TaqII (Takara Bio, Shiga, Japan), and the data were calculated according to the ddCt method with β-actin as the standardization control.
Liver was collected from a 12.5-day-old mouse embryo (C57BL/6 mouse). The liver was minced and digested for 10 minutes with Liver Digestion Medium (Life Technologies, California, US). The digested embryonic mouse hepatocytes were subjected to hemolysis and passed through a 70 μm cell strainer (BD Bioscience, New Jersey, US). […]
The FLK1^+CD31^+CD34^+ cells separated above were also seeded in a fibronectin-coated plate to 15,000 cells/cm^2 and cultured in endothelial cell medium. […] The cell count was calculated using a hemocytometer, after dissociating the cells using 0.05% trypsin/0.5 mM EDTA.

For Cc1cccc(-c2nn(C(=S)Nc3ccccc3)cc2-c2ccnc3ccccc23)n1 [A83-01, 3-(6-methyl-2-pyridinyl)-N-phenyl-4-(4-quinolinyl)-1H-pyrazolo-1-carbothioamide], the “expression of the mature liver sinusoidal endothelial cell marker genes Stab2, F8 and Lyve1” value was “significantly induced expression”.
